Data: PubChem BioAssay (NCI)
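These data come from cells grown in 96-well plates and exposed to compound for 48 hours at five concentrations. At the GI50, growth is halved. The concentration for full growth arrest is given as TGI.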

How the values were obtained:
Test in all cases: NCI tumour cell line growth inhibition, 48 h
[1] = system: DLD-1 colon
[2] = system: HOP-62 NSCLC
[3] = system: MALME-3M melanoma
[4] = system: LXFL 529 NSCLC
[5] = system: OVCAR-8 ovarian
[6] = system: CAKI-1 renal
[7] = system: 786-0 renal
[8] = system: KM12 colon

Row | SMILES | TGI [1] | TGI [2] | TGI [3] | TGI [4] | TGI [5] | TGI [6] | TGI [7] | TGI [8] | GI50 [1] | GI50 [2] | GI50 [4] | GI50 [5] | GI50 [6] | GI50 [7] | GI50 [8] | GI50 [3]
1 | CSC(C1c2ccccc2N(c2ccc(C)cc2)C2=NC(=O)N(C)C(=O)C21Cl)S(=O)(=O)c1ccc(C)cc1 (centres undefined) | 33.5 µM | 43.3 µM | 32.6 µM | 42.1 µM | > 100 µM | 43.2 µM | 38.4 µM |  |  |  |  |  |  |  |  | 
2 | O=C1CCC2(c3ccc(F)cc3)Nc3cc(Cl)ccc3N12 (centres undefined) | > 100 µM | > 100 µM | > 100 µM | > 100 µM | > 100 µM |  | > 100 µM | > 100 µM |  |  |  |  |  |  |  | 
3 | OCC(O)CC[CH2][Sn]([Br])([c]1ccccc1)[c]1ccccc1 (centres undefined) | > 100 µM | > 100 µM |  | > 100 µM | > 100 µM | > 100 µM | > 100 µM | > 100 µM | > 100 µM | > 100 µM | 88.5 µM | > 100 µM | > 100 µM | > 100 µM | > 100 µM | 
4 | CCOC(=O)[C]1([Bi]([CH3])[CH3])N=NC(C(=O)OC)=C1C(=O)OC (centres undefined) | 32.5 µM | > 100 µM | 31.8 µM | 35.2 µM | 42.3 µM | 29.3 µM | 33.2 µM | 49.2 µM | 18.3 µM | > 100 µM | 14.5 µM | 19.2 µM | 15.9 µM | 18.8 µM | 21.5 µM | 17 µM
5 | COC(=O)C1Cc2c(n(Cc3ccccc3)c3ccccc23)C(CCC(=O)O)N1C(C)C (centres undefined) | > 100 µM |  | > 100 µM | > 100 µM | > 100 µM | > 100 µM | > 100 µM | > 100 µM |  |  |  |  |  |  |  | 
6 | O=C(/C=C/c1c(O)ccc2ccccc12)c1cccc(O)c1 | > 100 µM | > 100 µM | > 100 µM | > 100 µM | > 100 µM | > 100 µM | > 100 µM | > 100 µM |  |  |  |  |  |  |  | 
7 | O=C(O)CNS(=O)(=O)c1ccc(NCc2ccccc2)cc1 | > 100 µM | > 100 µM | > 100 µM | > 100 µM | > 100 µM | > 100 µM | > 100 µM |  |  |  |  |  |  |  |  | 
8 | CCOC(=O)C1=C(OC(OCC)C(CC)[Se]c2ccccc2)CCCC1 (centres undefined) | 35.5 µM | > 100 µM | 97.7 µM | 91.8 µM | 42.1 µM | > 100 µM | 28.9 µM | > 100 µM |  |  |  |  |  |  |  | 
9 | N#Cc1cc([N+](=O)[O-])ccc1NC(=O)C(=O)Nc1n[nH]c(N)n1 | > 100 µM | > 100 µM | > 100 µM | > 100 µM | > 100 µM | > 100 µM | > 100 µM | > 100 µM |  |  |  |  |  |  |  | 
10 | COC12C=C(C)C(CC1)CC2C(=O)O (centres undefined) | > 100 µM | > 100 µM | > 100 µM | > 100 µM | > 100 µM | > 100 µM | > 100 µM | > 100 µM |  |  |  |  |  |  |  | 
11 | CC(=O)CNC(=O)OC(C)(C)C | > 100 µM | > 100 µM | > 100 µM |  | > 100 µM | > 100 µM | > 100 µM | > 100 µM |  |  |  |  |  |  |  | 
12 | O=C1C2c3[nH]c4ccccc4c3C3CCCCCCC3C2C(=O)N1c1ccccc1 (centres undefined) |  |  | 12.7 µM | 33.8 µM | 14.7 µM |  | 26.5 µM | > 100 µM |  |  |  |  |  |  |  | 
13 | C/C(CC(=O)Nc1cc(Cl)c(Cl)cc1Cl)=N\NC(N)=O | > 100 µM | > 100 µM | > 100 µM | > 100 µM | > 100 µM |  | > 100 µM | > 100 µM |  |  |  |  |  |  |  | 
